Patent US10259810B2, “N-sulfonylated pyrazolo[3,4-b]pyridin-6-carboxamides and method of use” (AbbVie S.à.r.l., priority 2015, dated 2019)
Where two headings read alike, the source gives them in different places.

Assays:
Type in all cases: cell-based
[1] = biological target: T1, ΔF508-CFTR (Homo sapiens, UniProt P13569, DEL508-508); assay: CFTR cell surface levels using HRP-tagged ΔF508-CFTR expressing CFBE cells, in the presence of a co-corrector; settings: HRP-tagged ΔF508-CFTR CFBE cells, in the presence of 3 μM co-corrector; for EC50: read-out: EC50
T1 construct: host or cells: CFBE41o-, doxycycline-inducible
In short: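 Chemiluminescent read-out of surface HRP (15 min, dark) after PBS washes. Activity is normalized as 100×(sample−DMSO)/(3 μM co-corrector alone−DMSO).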

[2] = biological target: T1, ΔF508-CFTR; assay: CFTR cell surface levels using HRP-tagged ΔF508-CFTR expressing CFBE cells, intrinsic corrector capacity; parameters: % Activation: concentration or dose not given beside the values; settings: HRP-tagged ΔF508-CFTR expressing CFBE41o- cells, compound alone (intrinsic corrector capacity), 20 hours at 33° C.; for EC50: read-out: EC50
In short: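 Read-out: chemiluminescent HRP activity of ECL4-HRP-tagged ΔF508-CFTR at the cell surface, 15 min substrate in dark. Normalized as 100×(sample−DMSO)/(positive control−DMSO).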

[3] = biological target: T2, CFTR ΔF508 (Homo sapiens, UniProt P13569, DEL508-508); assay: Chronic TECC assay, primary bronchial epithelial cells of CF patients homozygous for CFTR ΔF508 (corrector, co-corrector and potentiator); settings: chronic TECC
T2 construct: bronchial epithelial cells isolated from CF patients homozygous for the CFTR ΔF508 mutation; McGill University; Asterand; University of North Carolina hAEC-CF; host or cells: primary human bronchial epithelial cells from CF patients homozygous for ΔF508, differentiated at air-liquid interface
In short: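 Primary bronchial epithelial cells from ΔF508-homozygous CF patients on collagen IV-coated Transwells were chronically treated with test compound plus corrector and potentiator, which were re-added before recording. Ieq was derived from PD and Rt in NaCl-Ringer, pH 7.4, at 37° C, with apical amiloride and bilateral forskolin, recorded every 2 min over 20 min. Ieq increase was normalized to controls, and EC50 was taken from per-well concentrations.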

[4] = AUC = full area under the curve upon forskolin stimulation, read-out: EC50 (nM) (AUC**)
[5] = test compound at 1 μM, AUC = full area under the curve upon forskolin stimulation

T2 sequence (P13569 with tags, fused parts or gaps DEL508-508): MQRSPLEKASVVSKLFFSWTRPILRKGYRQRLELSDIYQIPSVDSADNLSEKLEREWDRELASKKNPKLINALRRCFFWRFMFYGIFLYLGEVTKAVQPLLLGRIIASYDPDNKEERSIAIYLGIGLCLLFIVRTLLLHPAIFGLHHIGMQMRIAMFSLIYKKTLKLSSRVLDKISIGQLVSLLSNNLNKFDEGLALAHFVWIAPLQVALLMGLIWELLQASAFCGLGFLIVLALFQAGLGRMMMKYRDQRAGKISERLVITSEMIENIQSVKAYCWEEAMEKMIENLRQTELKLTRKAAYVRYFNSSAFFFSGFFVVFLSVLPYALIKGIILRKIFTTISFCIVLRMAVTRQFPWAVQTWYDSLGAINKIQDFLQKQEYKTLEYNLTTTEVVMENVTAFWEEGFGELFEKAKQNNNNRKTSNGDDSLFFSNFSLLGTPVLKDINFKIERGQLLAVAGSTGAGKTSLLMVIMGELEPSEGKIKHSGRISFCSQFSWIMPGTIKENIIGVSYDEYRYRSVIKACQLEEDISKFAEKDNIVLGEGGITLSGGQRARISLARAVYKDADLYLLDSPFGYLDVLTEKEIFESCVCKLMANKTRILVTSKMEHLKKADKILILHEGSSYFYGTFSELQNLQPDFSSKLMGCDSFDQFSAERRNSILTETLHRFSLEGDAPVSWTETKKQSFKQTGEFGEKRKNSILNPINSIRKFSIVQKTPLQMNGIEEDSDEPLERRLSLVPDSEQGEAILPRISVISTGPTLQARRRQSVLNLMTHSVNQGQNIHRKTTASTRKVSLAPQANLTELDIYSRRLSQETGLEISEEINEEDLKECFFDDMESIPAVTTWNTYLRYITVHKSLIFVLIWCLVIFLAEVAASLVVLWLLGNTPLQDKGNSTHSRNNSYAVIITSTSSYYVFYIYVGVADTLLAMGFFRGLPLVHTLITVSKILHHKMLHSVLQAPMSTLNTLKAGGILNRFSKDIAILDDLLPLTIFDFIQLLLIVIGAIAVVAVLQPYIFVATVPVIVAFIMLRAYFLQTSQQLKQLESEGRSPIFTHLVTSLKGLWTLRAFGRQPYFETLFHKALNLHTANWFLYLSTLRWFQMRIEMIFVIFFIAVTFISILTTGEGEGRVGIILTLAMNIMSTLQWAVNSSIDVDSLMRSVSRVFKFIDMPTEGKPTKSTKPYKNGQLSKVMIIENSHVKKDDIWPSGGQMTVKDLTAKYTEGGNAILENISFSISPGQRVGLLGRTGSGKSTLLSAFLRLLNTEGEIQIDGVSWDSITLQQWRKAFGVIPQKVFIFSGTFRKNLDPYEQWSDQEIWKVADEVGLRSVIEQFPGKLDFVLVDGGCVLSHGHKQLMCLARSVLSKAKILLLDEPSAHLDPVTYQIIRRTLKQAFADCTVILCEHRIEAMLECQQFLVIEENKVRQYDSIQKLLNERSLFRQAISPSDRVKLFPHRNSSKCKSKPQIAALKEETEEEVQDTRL
T1 sequence (P13569 with tags, fused parts or gaps DEL508-508): as above

| Structure (SMILES) | % Activation [1] | EC50 [1] | % Activation [2] | EC50 [2] | EC50 [3, 4] | % Activity at 1 μM (AUC**) [3, 5] | % Activity at 3 μM (AUC**) ([3]; test compound at 3 μM, AUC = full area under the curve upon forskolin stimulation) | EC50 ([3]; Ieq = calculations based on the maximum current, read-out: EC50 (nM) (Ieq*)) | % Activity at 1 μM (Ieq*) ([3]; test compound at 1 μM, Ieq = calculations based on the maximum current) |
| --- | --- | --- | --- | --- | --- | --- | --- | --- | --- |
| COCC1(OC)CCN(c2cc(C(=O)NS(C)(=O)=O)nc3c2c(C2CCC2)nn3-c2ccccc2)CC1 [Compound 247, 3-cyclobutyl-N-(methanesulfonyl)-4-[4-methoxy-4-(methoxymethyl)piperidin-1-yl]-1-phenyl-1H-pyrazolo[3,4-b]pyridine-6-carboxamide] | 281.7% | 221 nM | 126.8% | 460 nM | 81 nM | 422.93% |  |  |  |
| COCC1CCN(c2cc(C(=O)NS(=O)(=O)N3CCC(N4CCOCC4)CC3)nc3c2c(C2CCC2)nn3-c2ccccc2)CC1 [Compound 397, 3-cyclobutyl-4-[4-(methoxymethyl)piperidin-1-yl]-N-[4-(morpholin-4-yl)piperidine-1-sulfonyl]-1-phenyl-1H-pyrazolo[3,4-b]pyridine-6-carboxamide] | 381.8% | 49 nM | 234.5% | 155 nM |  |  | 251.7766% |  |  |
| CS(=O)(=O)NC(=O)c1cc(OC[C@@H](F)C2CCOCC2)c2c(C3CCC3)nn(-c3ccccc3)c2n1 [Compound 199, 3-cyclobutyl-4-[(2S)-2-fluoro-2-(oxan-4-yl)ethoxy]-N-(methanesulfonyl)-1-phenyl-1H-pyrazolo[3,4-b]pyridine-6-carboxamide] | 304.63% | 316 nM | 142.6% | 481 nM | > 1000 nM | 627.48% |  |  |  |
| COCC1CCN(c2cc(C(=O)NS(=O)(=O)N3CCN(C)CC3)nc3c2c(C2CCC2)nn3-c2ccccc2)CC1 [Compound 400, 3-cyclobutyl-4-[4-(methoxymethyl)piperidin-1-yl]-N-(4-methylpiperazine-1-sulfonyl)-1-phenyl-1H-pyrazolo[3,4-b]pyridine-6-carboxamide] | 365.43% | 157 nM | 180.65% | 163 nM |  | 230% |  |  |  |
| CN(C)S(=O)(=O)NC(=O)c1cc(N2CCC(N3CCCCC3)CC2)c2c(C3CCC3)nn(-c3ccc(F)cc3)c2n1 [Compound 472, 4-([1,4'-bipiperidin]-1'-yl)-3-cyclobutyl-N-(dimethylsulfamoyl)-1-(4-fluorophenyl)-1H-pyrazolo[3,4-b]pyridine-6-carboxamide] | 399.79% | 249 nM | 210.57% | 681 nM | 34.2 nM | 181.0865% |  |  |  |
| CN(C)S(=O)(=O)NC(=O)c1cc(N2CCC(N3CCN(C4CC4)CC3)CC2)c2c(C3CCC3)nn(-c3ccc(F)cc3)c2n1 [Compound 583, 3-cyclobutyl-4-[4-(4-cyclopropylpiperazin-1-yl)piperidin-1-yl]-N-(dimethylsulfamoyl)-1-(4-fluorophenyl)-1H-pyrazolo[3,4-b]pyridine-6-carboxamide] | 480.15% | 47.6 nM | 269.7% | 178 nM | 51.3 nM | 613.3333% |  |  |  |
| CC(C)c1nn(-c2ccnc(N3CCCC3)c2)c2nc(C(=O)NS(C)(=O)=O)cc(-c3ccc(N4CCC(C#N)CC4)nc3)c12 [Compound 158, 4-[6-(4-cyanopiperidin-1-yl)pyridin-3-yl]-N-(methanesulfonyl)-3-(propan-2-yl)-1-[2-(pyrrolidin-1-yl)pyridin-4-yl]-1H-pyrazolo[3,4-b]pyridine-6-carboxamide] | 512.45% | 267 nM | 359.1% | 622 nM |  | 370.9% |  |  |  |
| COC(C)(C1CCN(c2cc(C(=O)NS(C)(=O)=O)nc3c2c(C2CCC2)nn3-c2ccccc2)CC1)C(F)(F)F (centres unmarked) [Compound 242, 3-cyclobutyl-N-(methanesulfonyl)-1-phenyl-4-[4-(1,1,1-trifluoro-2-methoxypropan-2-yl)piperidin-1-yl]-1H-pyrazolo[3,4-b]pyridine-6-carboxamide] | 459.15% | 203 nM | 242.1% | 283 nM | 14 nM | 308.45% |  |  |  |
| CC(C)c1nn(-c2cccc(N(C)C)c2)c2nc(C(=O)NS(C)(=O)=O)cc(-c3cnc(N4CCC(C#N)CC4)nc3)c12 [Compound 95, 4-[2-(4-cyanopiperidin-1-yl)pyrimidin-5-yl]-1-[3-(dimethylamino)phenyl]-N-(methanesulfonyl)-3-(propan-2-yl)-1H-pyrazolo[3,4-b]pyridine-6-carboxamide] | 611.7% | 649 nM | 355.6% | 838 nM |  |  |  | 10 nM | 180% |
| COCCN(C)S(=O)(=O)NC(=O)c1cc(N2CCC(N3CCOCC3)CC2)c2c(C3CCC3)nn(-c3ccc(F)cc3)c2n1 [Compound 471, 3-cyclobutyl-1-(4-fluorophenyl)-N-[(2-methoxyethyl)(methyl)sulfamoyl]-4-[4-(morpholin-4-yl)piperidin-1-yl]-1H-pyrazolo[3,4-b]pyridine-6-carboxamide] | 446.07% | 122 nM | 240.2% | 230 nM |  | 296.6667% |  |  |  |
| CN(C)S(=O)(=O)NC(=O)c1cc(N2CCC(N3CCOC(C#N)C3)CC2)c2c(C3CCC3)nn(-c3ccc(F)cc3)c2n1 (centres unmarked) [Compound 527, 4-[4-(2-cyanomorpholin-4-yl)piperidin-1-yl]-3-cyclobutyl-N-(dimethylsulfamoyl)-1-(4-fluorophenyl)-1H-pyrazolo[3,4-b]pyridine-6-carboxamide] | 500% | 53.8 nM | 295.95% | 79.1 nM |  | 370.693% |  |  |  |
| CN(C)S(=O)(=O)NC(=O)c1cc(N2CCC(CCN3CCOCC3)CC2)c2c(C3CCC3)nn(-c3ccc(F)cc3)c2n1 [Compound 416, 3-cyclobutyl-N-(dimethylsulfamoyl)-1-(4-fluorophenyl)-4-{4-[2-(morpholin-4-yl)ethyl]piperidin-1-yl}-1H-pyrazolo[3,4-b]pyridine-6-carboxamide] | 458.65% | 65 nM | 288% | 142 nM | 119 nM | 288.6036% |  |  |  |
| CN(C)S(=O)(=O)NC(=O)c1cc(N2CCC(N3CCCC(C#N)C3)CC2)c2c(C3CCC3)nn(-c3ccc(F)cc3)c2n1 (centres unmarked) [Compound 562, 4-(3-cyano[1,4'-bipiperidin]-1'-yl)-3-cyclobutyl-N-(dimethylsulfamoyl)-1-(4-fluorophenyl)-1H-pyrazolo[3,4-b]pyridine-6-carboxamide] | 589.55% | 77.6 nM | 341.3% | 70.5 nM |  | 289.8854% |  |  |  |
| COCC1CCN(c2cc(C(=O)NS(C)(=O)=O)nc3c2c(C2CCC2)nn3-c2ccnc(OC)c2)CC1 [Compound 385, 3-cyclobutyl-N-(methanesulfonyl)-4-[4-(methoxymethyl)piperidin-1-yl]-1-(2-methoxypyridin-4-yl)-1H-pyrazolo[3,4-b]pyridine-6-carboxamide] | 393.53% | 64 nM | 227.5% | 121 nM | 12.3 nM |  |  |  |  |
| CC(C)(O)C1CCN(c2cc(C(=O)NS(C)(=O)=O)nc3c2c(C2CCC2)nn3-c2ccccc2)CC1 [Compound 317, 3-cyclobutyl-4-[4-(2-hydroxypropan-2-yl)piperidin-1-yl]-N-(methanesulfonyl)-1-phenyl-1H-pyrazolo[3,4-b]pyridine-6-carboxamide] | 450.35% | 48.8 nM | 269.6% | 93.5 nM | 24 nM | 311.08% |  |  |  |
| CC(C)Oc1nn(C2CCCCC2)c2nc(C(=O)NS(C)(=O)=O)cc(-c3ccc(CN4CCN(C)CC4)cc3)c12 [Compound 441, 1-cyclohexyl-N-(methanesulfonyl)-4-{4-[(4-methylpiperazin-1-yl)methyl]phenyl}-3-[(propan-2-yl)oxy]-1H-pyrazolo[3,4-b]pyridine-6-carboxamide] | 393.27% | 196 nM | 196.1% | 350 nM | 206 nM | 236.6667% |  |  |  |
